Structures are written as SMILES.

Test in all cases: Pre-emergent herbicidal activity (Table II)
Type in all cases: in vivo
Holding throughout (conditions): 2-3 weeks

One assay has as its system Cocklebur. The procedure: (§1) The pre-emergence tests are conducted as follows:
(§2) A good grade of top soil is placed in aluminum pans and compacted to a depth of three-eighths to one-half inch from the top of the pan. On the top of the soil is placed a predetermined number of seeds or vegetative propagules of various plant species. The soil required to level fill the pans after seeding or adding vegetative propagules is weighed into a pan. A known amount of the active ingredient applied in a solvent or as a wettable powder suspension and the soil are thoroughly mixed, and used as a cover layer for prepared pans. After treatment, the pans are moved into a greenhouse bench where they are watered from below as needed to give adequate moisture for germination and growth.
(§3) Approximately 2-3 weeks after seeding and treating, the plants are observed and the results recorded. The herbicidal rating is obtained by means of fixed scale based on the percent injury of each plant species. The ratings are defined as follows: […]
(§4) The plant species utilized in one set of tests, the data for which are shown in Table II, are identified by letter in accordance with the following legend: […]

A further assay deals with Morningglory. On the procedure:
as §1, §2, §3, §4

A further assay deals with Johnsongrass. On the procedure: as §1, §2, §3, §4
The test system of another assay is Velvetleaf. The procedure:
as §1, §2, §3, §4

The test system of a further assay is Quackgrass. The procedure: as §1, §2, §3, §4
Another assay deals with Downy Brome. On the procedure: as §1, §2, §3, §4
The next assay relates to Smartweed. The procedure:
as §1, §2, §3, §4

The subject of a further assay is Yellow Nutsedge. On the procedure: as §1, §2, §3, §4
In the next assay the test system is Lambsquarters. On the procedure:
as §1, §2, §3, §4

In the next assay the test system is Barnyardgrass. On the procedure: as §1, §2, §3, §4
The test system of the next assay is Canada Thistle. The procedure: as §1, §2, §3, §4
Note: ranges in brackets are in %.

For the molecule `CCC1=C(N(Cn2c(=O)sc3ccccc32)C(=O)CCl)C(CC)CCC1` (stereo not drawn) [Example 5, N--[(2-oxo-3(2H)--benzothiazolyl)methyl]-N--(2,6-diethyl-1-cyclohexen-1-yl)-2-chloro-acetamide], the Herbicidal rating in the assay with Cocklebur (5.6 kg/ha), in the assay with Cocklebur (11.2 kg/ha), in the assay with Morningglory (5.6 kg/ha), with Morningglory (11.2 kg/ha), with Johnsongrass (5.6 kg/ha) and in the assay on Johnsongrass (11.2 kg/ha) was 0 (0-24) throughout. The Herbicidal rating in the assay with Velvetleaf (5.6 kg/ha), with Velvetleaf (11.2 kg/ha), with Quackgrass (5.6 kg/ha), in the assay with Quackgrass (11.2 kg/ha), in the assay with Downy Brome (5.6 kg/ha) and in the assay with Downy Brome (11.2 kg/ha) was 0 (0-24) in each case. For the same molecule, the Herbicidal rating was 0 (0-24) in the assay on Smartweed (5.6 kg/ha); 0 (0-24) in the assay with Smartweed (11.2 kg/ha); 0 (0-24) with Yellow Nutsedge (5.6 kg/ha); 0 (0-24) in the assay with Yellow Nutsedge (11.2 kg/ha); 1 (25-49) in the assay with Lambsquarters (5.6 kg/ha); 1 (25-49) with Lambsquarters (11.2 kg/ha). For the same molecule, the Herbicidal rating in the assay with Barnyardgrass (5.6 kg/ha) is recorded as 1 (25-49); with Barnyardgrass (11.2 kg/ha), 1 (25-49); in the assay with Canada Thistle (5.6 kg/ha) it was 0 (0-24); with Canada Thistle (11.2 kg/ha), 0 (0-24).
Regarding `CC1=C(N(Cn2c(=O)sc3cc(Br)ccc32)C(=O)CCl)C(C)CCC1` (stereo not drawn) [Example 7, N--[(6-bromo-2-oxo-3(2H)--benzothiazolyl)methyl]-N--(2,6-dimethyl-1-cyclohexen-1-yl)-2-chloroacetamide], the Herbicidal rating with Cocklebur (5.6 kg/ha), in the assay with Cocklebur (11.2 kg/ha), in the assay with Morningglory (5.6 kg/ha), in the assay with Morningglory (11.2 kg/ha), in the assay with Johnsongrass (5.6 kg/ha) and in the assay on Johnsongrass (11.2 kg/ha) was 0 (0-24) throughout. Moreover, the Herbicidal rating in the assay with Velvetleaf (5.6 kg/ha), with Velvetleaf (11.2 kg/ha), with Quackgrass (5.6 kg/ha), in the assay with Quackgrass (11.2 kg/ha), in the assay on Downy Brome (5.6 kg/ha) and in the assay with Downy Brome (11.2 kg/ha) was 0 (0-24) throughout. Also, the Herbicidal rating in the assay on Smartweed (5.6 kg/ha) is recorded as 0 (0-24); with Smartweed (11.2 kg/ha), 0 (0-24); with Yellow Nutsedge (5.6 kg/ha), 0 (0-24); in the assay with Yellow Nutsedge (11.2 kg/ha), 0 (0-24); in the assay with Lambsquarters (5.6 kg/ha), 0 (0-24); with Lambsquarters (11.2 kg/ha) it was 1 (25-49). Besides, the Herbicidal rating with Barnyardgrass (5.6 kg/ha) was 1 (25-49); with Barnyardgrass (11.2 kg/ha), 1 (25-49); in the assay with Canada Thistle (5.6 kg/ha), 0 (0-24); with Canada Thistle (11.2 kg/ha), 0 (0-24).
As for `CCOc1ccc2c(c1)sc(=O)n2CN(C(=O)CCl)C1=C(C)C(C)CCC1` (stereo not drawn) [Example 8, N--[(6-ethoxy-2-oxo-3(2H)--benzothiazolyl)methyl]-N--(2,3-dimethyl-1-cyclohexen-1-yl)-2-chloroacetamide], the Herbicidal rating in the assay with Cocklebur (5.6 kg/ha), with Morningglory (5.6 kg/ha), with Morningglory (11.2 kg/ha), in the assay on Johnsongrass (5.6 kg/ha), with Johnsongrass (11.2 kg/ha) and in the assay with Velvetleaf (5.6 kg/ha) was 0 (0-24) each time. The Herbicidal rating in the assay with Velvetleaf (11.2 kg/ha), in the assay with Quackgrass (5.6 kg/ha), with Quackgrass (11.2 kg/ha), in the assay with Downy Brome (5.6 kg/ha), in the assay on Downy Brome (11.2 kg/ha) and in the assay with Smartweed (5.6 kg/ha) was 0 (0-24) throughout. Also, the Herbicidal rating with Smartweed (11.2 kg/ha) is 0 (0-24); in the assay on Yellow Nutsedge (5.6 kg/ha), 0 (0-24); in the assay with Yellow Nutsedge (11.2 kg/ha), 0 (0-24); in the assay with Lambsquarters (5.6 kg/ha), 0 (0-24); in the assay with Lambsquarters (11.2 kg/ha), 0 (0-24); with Barnyardgrass (5.6 kg/ha), 1 (25-49). Besides, the Herbicidal rating in the assay on Barnyardgrass (11.2 kg/ha), in the assay with Canada Thistle (5.6 kg/ha) and in the assay with Canada Thistle (11.2 kg/ha) was 0 (0-24) each time.
With `CC1=C(N(Cn2c(=O)oc3ccccc32)C(=O)CCl)C(C)CCC1` (stereo not drawn) [Example 11, N--[(2-oxo-3(2H)--benzoxazolyl)methyl]-N--(2,6-dimethyl-1-cyclohexen-1-yl)-2-chloro-amide], the Herbicidal rating in the assay with Cocklebur (5.6 kg/ha), in the assay on Cocklebur (11.2 kg/ha), in the assay with Morningglory (5.6 kg/ha), in the assay with Morningglory (11.2 kg/ha), with Johnsongrass (5.6 kg/ha) and in the assay with Johnsongrass (11.2 kg/ha) was 0 (0-24) in each case. The Herbicidal rating was 0 (0-24) in the assay with Velvetleaf (5.6 kg/ha); 0 (0-24) in the assay on Velvetleaf (11.2 kg/ha); 1 (25-49) in the assay with Quackgrass (5.6 kg/ha); 3 (75-100) with Quackgrass (11.2 kg/ha); 3 (75-100) in the assay on Downy Brome (5.6 kg/ha); 3 (75-100) in the assay with Downy Brome (11.2 kg/ha). Further, the Herbicidal rating with Smartweed (5.6 kg/ha) is reported as 0 (0-24); in the assay on Smartweed (11.2 kg/ha), 0 (0-24); in the assay on Yellow Nutsedge (5.6 kg/ha) it was 3 (75-100); in the assay with Yellow Nutsedge (11.2 kg/ha), 1 (25-49); in the assay with Lambsquarters (5.6 kg/ha), 2 (50-74); with Lambsquarters (11.2 kg/ha) it was 1 (25-49). The Herbicidal rating is on record as 3 (75-100) in the assay with Barnyardgrass (5.6 kg/ha), 3 (75-100) in the assay on Barnyardgrass (11.2 kg/ha), 0 (0-24) in the assay with Canada Thistle (5.6 kg/ha) and 0 (0-24) in the assay with Canada Thistle (11.2 kg/ha).

(Values after US4731451A, “N-((2-oxo-3(2H)benzothiazolyl)methyl)-2-chloroacetanilides” (Monsanto Company, priority 1980, dated 1988).)
